Data from publication PMC7567103 (Nature Communications, 2020).

Columns and labels:
Assay type in all cases: cell-based
[1] = biological target: T1, GHRHR wild-type (HA-Flag-GHRHR) (Homo sapiens, UniProt Q02643); assay: GHRH-stimulated cAMP accumulation (LANCE), HEK 293T; details: LANCE Ultra cAMP TR-FRET, 30 min RT, mean ± SEM, n ≥ 3
T1 construct: GHRHR(23-423) (WT); HA signal peptide (replaces native signal M1-G22) (N); expressed in transfected cells; host or cells: HEK 293T, pcDNA3.1, transient
Description: (§1) Fig. 2 Molecular recognition of GHRH by GHRHR and comparison of that with LA-PTH–PTH1R and GLP-1–GLP-1R. a Detailed interaction between GHRH and the TMD pocket of GHRHR with hydrogen bonds shown as dotted lines. b, c Pairwise comparison of GHRH bound to GHRHR with GLP-1 and LA-PTH in complex with their corresponding receptors, showing the relative positions of peptide ligands. Lime green, GHRHR; blue, GHRH; red, PTH1R and LA-PTH; purple, GLP-1R and GLP-1. d–f The effects of mutation in the ligand-binding pocket on cAMP accumulation. cAMP levels were measured in wild-type (WT) receptor and alanine mutants in ECL1, 2, and 3 (d), TM1, 2, and 3 (e), and TM5, 6, and 7 (f). cAMP signals were normalized to the maximum response of WT and concentration–response curves were analyzed using a three-parameter logistic equation. Data shown are means ± S.E.M. of at least three independent experiments (n = 3–5), conducted in triplicate. Source data are provided as a Source data file.
GHRH-stimulated cAMP accumulation was measured by a LANCE Ultra cAMP kit (PerkinElmer). […] After 1 h RT incubation, TR-FRET signals (excitation: 320 nm, emission: 615 and 665 nm) were measured by an EnVision (PerkinElmer). […]
245 to determine pEC50 and Emax values. Emax values for mutants are expressed as a
246 percentage of the wild-type (WT). Cell surface expression was assessed by FACS to […]

GHRHR T213A = biological target: T2, GHRHR T213A (Homo sapiens, UniProt Q02643, T213A); assay: cAMP accumulation, T213A; details: mean ± SEM, n ≥ 3
T2 construct: GHRHR(23-423)-; HA signal peptide (replaces native signal M1-G22) (N); expressed in transfected cells; host or cells: HEK 293T, pcDNA3.1, transient
Description: as §1
(§2) GHRH-stimulated cAMP accumulation was measured by a LANCE Ultra cAMP kit (PerkinElmer). […] After 1 h RT incubation, TR-FRET signals (excitation: 320 nm, emission: 615 and 665 nm) were measured by an EnVision (PerkinElmer).

GHRHR A271F = biological target: T3, GHRHR A271F (Homo sapiens, UniProt Q02643, A271F); assay: cAMP accumulation, A271F; details: mean ± SEM, n ≥ 3
T3 construct: GHRHR(23-423)-; HA signal peptide (replaces native signal M1-G22) (N); expressed in transfected cells; host or cells: HEK 293T, pcDNA3.1, transient
Description: as §1, §2

GHRHR T192A = biological target: T4, GHRHR T192A (Homo sapiens, UniProt Q02643, T192A); assay: cAMP accumulation, T192A; details: mean ± SEM, n ≥ 3
T4 construct: GHRHR(23-423)-; HA signal peptide (replaces native signal M1-G22) (N); expressed in transfected cells; host or cells: HEK 293T, pcDNA3.1, transient
Description: as §1, §2

GHRHR S209A = biological target: T5, GHRHR S209A (Homo sapiens, UniProt Q02643, S209A); assay: cAMP accumulation, S209A; details: mean ± SEM, n ≥ 3
T5 construct: GHRHR(23-423)-; HA signal peptide (replaces native signal M1-G22) (N); expressed in transfected cells; host or cells: HEK 293T, pcDNA3.1, transient
Description: as §1, §2

GHRHR F126A = biological target: T6, GHRHR F126A (Homo sapiens, UniProt Q02643, F126A); assay: cAMP accumulation, F126A; details: mean ± SEM, n ≥ 3
T6 construct: GHRHR(23-423)-; HA signal peptide (replaces native signal M1-G22) (N); expressed in transfected cells; host or cells: HEK 293T, pcDNA3.1, transient
Description: as §1, §2

GHRHR L354A = biological target: T7, GHRHR L354A (Homo sapiens, UniProt Q02643, L354A); assay: cAMP accumulation, L354A; details: mean ± SEM, n ≥ 3
T7 construct: GHRHR(23-423)-; HA signal peptide (replaces native signal M1-G22) (N); expressed in transfected cells; host or cells: HEK 293 T
Description: as §1, §2

T6 sequence (Q02643 23-423 F126A): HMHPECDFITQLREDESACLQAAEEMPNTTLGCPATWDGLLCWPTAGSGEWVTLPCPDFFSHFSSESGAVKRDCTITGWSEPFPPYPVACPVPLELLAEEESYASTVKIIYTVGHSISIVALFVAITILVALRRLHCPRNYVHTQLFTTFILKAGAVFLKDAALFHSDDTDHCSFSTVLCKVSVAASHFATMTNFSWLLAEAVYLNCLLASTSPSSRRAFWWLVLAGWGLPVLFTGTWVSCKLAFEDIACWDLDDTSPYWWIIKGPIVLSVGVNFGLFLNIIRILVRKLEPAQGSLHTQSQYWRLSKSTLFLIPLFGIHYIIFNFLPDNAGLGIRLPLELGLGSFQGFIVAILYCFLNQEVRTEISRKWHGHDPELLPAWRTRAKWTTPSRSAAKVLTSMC
T5 sequence (Q02643 23-423 S209A): as the sequence (Q02643 23-423 F126A) above, with A104F, S187A counted along it
T1 sequence (Q02643 23-423): as the sequence (Q02643 23-423 F126A) above, with A104F counted along it
T4 sequence (Q02643 23-423 T192A): as the sequence (Q02643 23-423 F126A) above, with A104F, T170A counted along it
T7 sequence (Q02643 23-423 L354A): as the sequence (Q02643 23-423 F126A) above, with A104F, L332A counted along it
T2 sequence (Q02643 23-423 T213A): as the sequence (Q02643 23-423 F126A) above, with A104F, T191A counted along it
T3 sequence (Q02643 23-423 A271F): as the sequence (Q02643 23-423 F126A) above, with A104F, A249F counted along it

## CC[C@H](C)[C@H](NC(=O)[C@H](C)NC(=O)[C@H](CC(=O)O)NC(=O)[C@H](C)NC(=O)[C@@H](N)Cc1ccc(O)cc1)C(=O)N[C@@H](Cc1ccccc1)C(=O)N[C@H](C(=O)N[C@@H](CC(N)=O)C(=O)N[C@@H](CO)C(=O)N[C@@H](Cc1ccc(O)cc1)C(=O)N[C@@H](CCCNC(=N)N)C(=O)N[C@@H](CCCCN)C(=O)N[C@H](C(=O)N[C@@H](CC(C)C)C(=O)NCC(=O)N[C@@H](CCC(N)=O)C(=O)N[C@@H](CC(C)C)C(=O)N[C@@H](CO)C(=O)N[C@@H](C)C(=O)N[C@@H](CCCNC(=N)N)C(=O)N[C@@H](CCCCN)C(=O)N[C@@H](CC(C)C)C(=O)N[C@@H](CC(C)C)C(=O)N[C@@H](CCC(N)=O)C(=O)N[C@@H](CC(=O)O)C(=O)N[C@H](C(=O)N[C@@H](CCSC)C(=O)N[C@@H](CO)C(=O)N[C@@H](CCCNC(=N)N)C(=O)N[C@@H](CCC(N)=O)C(=O)N[C@@H](CCC(N)=O)C(=O)NCC(=O)N[C@@H](CCC(=O)O)C(=O)N[C@@H](CO)C(=O)N[C@@H](CC(N)=O)C(=O)N[C@@H](CCC(N)=O)C(=O)N[C@@H](CCC(=O)O)C(=O)N[C@@H](CCCNC(=N)N)C(=O)NCC(=O)N[C@@H](C)C(=O)N[C@@H](CCCNC(=N)N)C(=O)N[C@@H](C)C(=O)N[C@@H](CCCNC(=N)N)C(=O)N[C@@H](CC(C)C)C(N)=O)[C@@H](C)CC)C(C)C)[C@@H](C)O [GHRH, Growth hormone-releasing hormone]
[1]; 0.5 mM IBMX
  EC50: 0.182 nM
[1]
  Emax: 100 % WT
GHRHR T213A
  EC50: 0.447 nM
  Emax: 91.48±4.55 % WT
GHRHR A271F
  EC50: 0.186 nM
  Emax: 103.70±0.64 % WT
GHRHR T192A
  EC50: 0.229 nM
  Emax: 103.11±1.18 % WT
GHRHR S209A
  EC50: 0.11 nM
  Emax: 100.52±0.43 % WT
GHRHR F126A
  EC50: 1.1 nM
  Emax: 98.92±0.84 % WT
GHRHR L354A
  EC50: 0.182 nM
  Emax: 98.79±1.84 % WT
